Our source for the IC50 values is patent US20260297080A1, “BICYCLIC COMPOUNDS AS CDK INHIBITORS” (BeOne Medicines I GmbH, priority 2022, published 2026).

SMILES strings stand for the structures.

For orientation: IC50 means the concentration that inhibits the measured activity by half. The low end stands for greater potency, the high end for weaker potency.

For one test, the target named is CDK2/Cyclin E1 (Homo sapiens, UniProt P24941). In words: CDK2/Cyclin E1 Biochemical Assay (TR-FRET), 0.060 mM ATP. The note with it: 0.15 μM Rb (Ser780)-biotin substrate, pH7.0, 60 min preincubation, 120 min reaction, room temperature. The method, boiled down: (§1)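 Percent inhibition was derived from the 665 nm/620 nm TR-FRET ratio after a 120-minute room-temperature reaction on 0.15 μM Rb (Ser780)-biotin, preceded by 60-minute enzyme–compound preincubation. IC50 came from four-parameter logistic fitting.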
Background: TR-FRET usually uses a lanthanide donor and a delayed reading to cut background.

For a further test, the target named is CDK1/Cyclin B1 (Homo sapiens, UniProt P06493). Description: CDK1/Cyclin B1 Biochemical Assay (TR-FRET), 0.015 mM ATP. The note with it: 0.15 μM Rb (Ser780)-biotin substrate, pH7.0, 60 min preincubation, 120 min reaction, room temperature. Summed up: as §1
Chain of CDK1/Cyclin B1 (P06493 whole entry): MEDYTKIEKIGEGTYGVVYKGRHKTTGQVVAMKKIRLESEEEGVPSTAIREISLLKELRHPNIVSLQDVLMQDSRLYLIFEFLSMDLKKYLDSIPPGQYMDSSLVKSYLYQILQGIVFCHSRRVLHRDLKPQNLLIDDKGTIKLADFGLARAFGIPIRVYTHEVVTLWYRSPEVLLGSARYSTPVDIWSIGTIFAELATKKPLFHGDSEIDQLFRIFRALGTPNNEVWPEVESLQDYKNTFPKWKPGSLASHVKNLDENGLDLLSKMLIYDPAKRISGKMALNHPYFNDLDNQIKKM
Chain of CDK1/Cyclin B1 (P14635 whole entry partner): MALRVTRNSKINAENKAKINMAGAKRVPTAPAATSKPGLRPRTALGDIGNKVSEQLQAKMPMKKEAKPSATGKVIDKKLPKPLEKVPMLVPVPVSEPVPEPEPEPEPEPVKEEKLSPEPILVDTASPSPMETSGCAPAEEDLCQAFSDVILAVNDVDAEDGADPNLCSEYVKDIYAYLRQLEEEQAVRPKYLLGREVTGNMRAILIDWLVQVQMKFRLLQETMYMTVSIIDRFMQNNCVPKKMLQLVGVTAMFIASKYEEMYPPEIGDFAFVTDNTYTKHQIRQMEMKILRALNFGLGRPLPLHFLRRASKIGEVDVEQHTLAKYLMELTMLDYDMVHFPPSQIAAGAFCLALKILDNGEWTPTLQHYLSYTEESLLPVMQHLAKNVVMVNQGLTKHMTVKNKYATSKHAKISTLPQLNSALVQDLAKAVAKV

For `CC(C)NC(=O)O[C@H]1CC[C@@H](c2cc(Nc3ccc4c(c3)N(CCO)S(=O)(=O)C4)n[nH]2)C1` (relative stereo) [Example 309, cis-3-(3-((1-(2-hydroxyethyl)-2,2-dioxido-1,3-dihydrobenzo[c]isothiazol-6-yl)amino)-1H-pyrazol-5-yl)cyclopentyl isopropylcarbamate], the IC50 against CDK2/Cyclin E1 turned out to be 1.4 nM; against CDK1/Cyclin B1, 6.1 nM.
Regarding `CC(C)NC(=O)O[C@H]1CC[C@@H](c2cc(Nc3cc4c(cc3F)CS(=O)(=O)N4)n[nH]2)C1` (relative stereo) [Example 310, cis-3-(3-((5-fluoro-2,2-dioxido-1,3-dihydrobenzo[c]isothiazol-6-yl)amino)-1H-pyrazol-5-yl)cyclopentyl isopropylcarbamate], the figures for the IC50 against CDK2/Cyclin E1 and against CDK1/Cyclin B1 were 81 nM and 2200 nM, respectively.
In the case of `CC(C)NC(=O)O[C@H]1CC[C@@H](c2cc(Nc3cc(F)c4c(c3)NS(=O)(=O)C4)n[nH]2)C1` (relative stereo) [Example 311, cis-3-(3-((4-fluoro-2,2-dioxido-1,3-dihydrobenzo[c]isothiazol-6-yl)amino)-1H-pyrazol-5-yl)cyclopentyl isopropylcarbamate], the IC50 is 6 nM at CDK2/Cyclin E1 and 158 nM at CDK1/Cyclin B1.
Regarding `CC(C)NC(=O)O[C@H]1CC[C@@H](c2cc(Nc3ccc4c(c3F)NS(=O)(=O)C4)n[nH]2)C1` (relative stereo) [Example 312, cis-3-(3-((7-fluoro-2,2-dioxido-1,3-dihydrobenzo[c]isothiazol-6-yl)amino)-1H-pyrazol-5-yl)cyclopentyl isopropylcarbamate], the IC50 came out at 4.3 nM at CDK2/Cyclin E1 and 147 nM at CDK1/Cyclin B1.
On the same counts, the results for `CC(C)NC(=O)O[C@H]1CC[C@@H](c2cc(Nc3ccc4c(c3F)S(=O)(=O)CC4)n[nH]2)C1` (relative stereo) [Example 314, cis-3-(3-((7-fluoro-1,1-dioxido-2,3-dihydrobenzo[b]thiophen-6-yl)amino)-1H-pyrazol-5-yl)cyclopentyl isopropylcarbamate] are 1.6 nM and 44 nM.
For the compound `CC(C)NC(=O)O[C@@H]1CC[C@H](c2cc(Nc3ccc4c(c3)S(=O)(=O)CN4C(=O)OC(C)(C)C)n[nH]2)C1` (relative stereo) [Example 318, cis-tert-butyl 6-((5-(3-((isopropylcarbamoyl)oxy)cyclopentyl)-1H-pyrazol-3-yl)amino)benzo[d]thiazole-3 (2H)-carboxylate 1,1-dioxide], the IC50 against CDK2/Cyclin E1 stood at 257 nM; on CDK1/Cyclin B1, 1750 nM.
On to `CC(C)NC(=O)O[C@@H]1CC[C@H](c2cc(Nc3ccc4c(c3)N(C(=O)OC(C)(C)C)CS4(=O)=O)n[nH]2)C1` (relative stereo) [Example 319, cis-tert-butyl 5-((5-(3-((isopropylcarbamoyl)oxy)cyclopentyl)-1H-pyrazol-3-yl)amino)benzo[d]thiazole-3 (2H)-carboxylate 1,1-dioxide], for which the values for the IC50 at CDK2/Cyclin E1 and on CDK1/Cyclin B1 were 85 nM and 1750 nM, respectively.
Turning to `CC(C)NC(=O)O[C@H]1CC[C@@H](c2cc(Nc3ccc4c(c3)NS(=O)(=O)N4)n[nH]2)C1` (relative stereo) [Example 320, cis-3-(3-((2,2-dioxido-1,3-dihydrobenzo[c][1,2,5]thiadiazol-5-yl)amino)-1H-pyrazol-5-yl)cyclopentyl isopropylcarbamate], the IC50 on CDK2/Cyclin E1 was 134 nM; against CDK1/Cyclin B1, 1760 nM.
As to `C[C@@H](CO)NC(=O)O[C@H]1CC[C@@H](c2cc(Nc3ccc4c(c3)CS(=O)(=O)N4C)n[nH]2)C1` (relative stereo) [Example 324, cis-3-(3-((1-methyl-2,2-dioxido-1,3-dihydrobenzo[c]isothiazol-5-yl)amino)-1H-pyrazol-5-yl)cyclopentyl((S)-1-hydroxypropan-2-yl)carbamate], the IC50 at CDK2/Cyclin E1 came out at 3.3 nM; on CDK1/Cyclin B1, 83 nM.
For the compound `CC(C)NC(=O)O[C@H]1CC[C@@H](c2cc(Nc3ccc4c(c3F)CN(CC3CN(S(C)(=O)=O)C3)S4(=O)=O)n[nH]2)C1` (relative stereo) [Example 326, cis-3-(3-((4-fluoro-2-((1-(methylsulfonyl)azetidin-3-yl)methyl)-1,1-dioxido-2,3-dihydrobenzo[d]isothiazol-5-yl)amino)-1H-pyrazol-5-yl)cyclopentyl isopropylcarbamate], the half-inhibitory concentration (IC50) is 6.6 nM at CDK2/Cyclin E1 and 290 nM on CDK1/Cyclin B1.
Consider `CC(C)(CO)NC(=O)O[C@H]1CC[C@@H](c2cc(Nc3ccc4c(c3F)CNS4(=O)=O)n[nH]2)C1` (relative stereo) [Example 329, cis-3-(3-((4-fluoro-1,1-dioxido-2,3-dihydrobenzo[d]isothiazol-5-yl)amino)-1H-pyrazol-5-yl)cyclopentyl(1-hydroxy-2-methylpropan-2-yl)carbamate], for which the IC50 at CDK2/Cyclin E1 turned out to be 2.7 nM; against CDK1/Cyclin B1, 175 nM.
Take `COCC(C)NC(=O)O[C@H]1CC[C@@H](c2cc(Nc3ccc4c(c3F)CS(=O)(=O)N4C)n[nH]2)C1` (relative stereo) [Example 331, cis-3-(3-((4-fluoro-1-methyl-2,2-dioxido-1,3-dihydrobenzo[c]isothiazol-5-yl)amino)-1H-pyrazol-5-yl)cyclopentyl(1-methoxypropan-2-yl)carbamate]: the IC50 amounted to 3.9 nM on CDK2/Cyclin E1 and 229 nM on CDK1/Cyclin B1.
For `O=C(NC1(CO)CC1)O[C@H]1CC[C@@H](c2cc(Nc3ccc4c(c3F)CNS4(=O)=O)n[nH]2)C1` (relative stereo) [Example 333, cis-3-(3-((4-fluoro-1,1-dioxido-2,3-dihydrobenzo[d]isothiazol-5-yl)amino)-1H-pyrazol-5-yl)cyclopentyl(1-(hydroxymethyl)cyclopropyl)carbamate], the IC50 on CDK2/Cyclin E1 amounted to 10 nM; against CDK1/Cyclin B1, 402 nM.
Take `CC(C)NC(=O)O[C@H]1CC[C@@H](c2cc(Nc3ccc4c(c3)C(F)(F)S(=O)(=O)N4)n[nH]2)C1` (relative stereo) [Example 334, cis-3-(3-((3,3-difluoro-2,2-dioxido-1,3-dihydrobenzo[c]isothiazol-5-yl)amino)-1H-pyrazol-5-yl)cyclopentyl isopropylcarbamate]: the IC50 came out at 84 nM at CDK2/Cyclin E1 and 899 nM at CDK1/Cyclin B1.
For the compound `CN1Cc2c(ccc(Nc3cc([C@@H]4CC[C@H](OC(=O)NC5(C)CCOC5)C4)[nH]n3)c2F)S1(=O)=O` (relative stereo) [Example 335, cis-3-(3-((4-fluoro-2-methyl-1,1-dioxido-2,3-dihydrobenzo[d]isothiazol-5-yl)amino)-1H-pyrazol-5-yl)cyclopentyl(3-methyltetrahydrofuran-3-yl)carbamate], the results for the IC50 on CDK2/Cyclin E1 and at CDK1/Cyclin B1 were 5.1 nM and 351 nM, respectively.
With `CN1Cc2c(ccc(Nc3cc([C@@H]4CC[C@H](OC(=O)NC5COC5)C4)[nH]n3)c2F)S1(=O)=O` (relative stereo) [Example 336, cis-3-(3-((4-fluoro-2-methyl-1,1-dioxido-2,3-dihydrobenzo[d]isothiazol-5-yl)amino)-1H-pyrazol-5-yl)cyclopentyl oxetan-3-ylcarbamate], the IC50 against CDK2/Cyclin E1 came to 97 nM; against CDK1/Cyclin B1 it was 1470 nM.
On the same counts, the results for `CC(NC(=O)O[C@H]1CC[C@@H](c2cc(Nc3ccc4c(c3F)CN(C)S4(=O)=O)n[nH]2)C1)C1COC1` (relative stereo) [Example 337, cis-3-(3-((4-fluoro-2-methyl-1,1-dioxido-2,3-dihydrobenzo[d]isothiazol-5-yl)amino)-1H-pyrazol-5-yl)cyclopentyl(1-(oxetan-3-yl)ethyl)carbamate] are 42 nM and 1730 nM.
Take `COCC(C)NC(=O)O[C@H]1CC[C@@H](c2cc(Nc3ccc4c(c3F)CN(C)S4(=O)=O)n[nH]2)C1` (relative stereo) [Example 338, cis-3-(3-((4-fluoro-2-methyl-1,1-dioxido-2,3-dihydrobenzo[d]isothiazol-5-yl)amino)-1H-pyrazol-5-yl)cyclopentyl(1-methoxypropan-2-yl)carbamate]: the IC50 against CDK2/Cyclin E1 stood at 13 nM; against CDK1/Cyclin B1 it was 544 nM.
For `CN1c2ccc(Nc3cc([C@@H]4CC[C@H](OC(=O)N[C@H]5CC[C@@H](O)CC5)C4)[nH]n3)cc2CS1(=O)=O` (relative stereo) [Example 341, cis-3-(3-((1-methyl-2,2-dioxido-1,3-dihydrobenzo[c]isothiazol-5-yl)amino)-1H-pyrazol-5-yl)cyclopentyl((1s,4s)-4-hydroxycyclohexyl)carbamate], the IC50 at CDK2/Cyclin E1 was determined as 4.7 nM; against CDK1/Cyclin B1 it was 77 nM.
Take `CN1c2ccc(Nc3cc([C@@H]4CC[C@H](OC(=O)NC5(CO)CC5)C4)[nH]n3)cc2CS1(=O)=O` (relative stereo) [Example 342, cis-3-(3-((1-methyl-2,2-dioxido-1,3-dihydrobenzo[c]isothiazol-5-yl)amino)-1H-pyrazol-5-yl)cyclopentyl(1-(hydroxymethyl)cyclopropyl)carbamate]: the figures for the IC50 against CDK2/Cyclin E1 and against CDK1/Cyclin B1 were 4.9 nM and 61 nM, respectively.
In the case of `CC(NC(=O)O[C@H]1CC[C@@H](c2cc(Nc3ccc4c(c3)CS(=O)(=O)N4)n[nH]2)C1)C1COC1` (relative stereo) [Example 343, cis-3-(3-((2,2-dioxido-1,3-dihydrobenzo[c]isothiazol-5-yl)amino)-1H-pyrazol-5-yl)cyclopentyl(1-(oxetan-3-yl)ethyl)carbamate], the IC50 at CDK2/Cyclin E1 worked out at 3.2 nM; on CDK1/Cyclin B1 it was 43 nM.
For `COCC1(NC(=O)O[C@H]2CC[C@@H](c3cc(Nc4ccc5c(c4F)CN(C)S5(=O)=O)n[nH]3)C2)CC1` (relative stereo) [Example 344, cis-3-(3-((4-fluoro-2-methyl-1,1-dioxido-2,3-dihydrobenzo[d]isothiazol-5-yl)amino)-1H-pyrazol-5-yl)cyclopentyl(1-(methoxymethyl)cyclopropyl)carbamate], the IC50 at CDK2/Cyclin E1 was found to be 6.4 nM; at CDK1/Cyclin B1 it was 626 nM.
